These results are taken from patent publication US12209081B2 (Katholieke Universiteit Leuven, priority 2020, dated 2025).

SMILES strings stand for the structures. pIC50: −log10 of the molar value.

mouse TRPM3α2 (mTRPM3) ion channel, sequence (J9SQF3 other isoform, or with tags, fused parts or gaps): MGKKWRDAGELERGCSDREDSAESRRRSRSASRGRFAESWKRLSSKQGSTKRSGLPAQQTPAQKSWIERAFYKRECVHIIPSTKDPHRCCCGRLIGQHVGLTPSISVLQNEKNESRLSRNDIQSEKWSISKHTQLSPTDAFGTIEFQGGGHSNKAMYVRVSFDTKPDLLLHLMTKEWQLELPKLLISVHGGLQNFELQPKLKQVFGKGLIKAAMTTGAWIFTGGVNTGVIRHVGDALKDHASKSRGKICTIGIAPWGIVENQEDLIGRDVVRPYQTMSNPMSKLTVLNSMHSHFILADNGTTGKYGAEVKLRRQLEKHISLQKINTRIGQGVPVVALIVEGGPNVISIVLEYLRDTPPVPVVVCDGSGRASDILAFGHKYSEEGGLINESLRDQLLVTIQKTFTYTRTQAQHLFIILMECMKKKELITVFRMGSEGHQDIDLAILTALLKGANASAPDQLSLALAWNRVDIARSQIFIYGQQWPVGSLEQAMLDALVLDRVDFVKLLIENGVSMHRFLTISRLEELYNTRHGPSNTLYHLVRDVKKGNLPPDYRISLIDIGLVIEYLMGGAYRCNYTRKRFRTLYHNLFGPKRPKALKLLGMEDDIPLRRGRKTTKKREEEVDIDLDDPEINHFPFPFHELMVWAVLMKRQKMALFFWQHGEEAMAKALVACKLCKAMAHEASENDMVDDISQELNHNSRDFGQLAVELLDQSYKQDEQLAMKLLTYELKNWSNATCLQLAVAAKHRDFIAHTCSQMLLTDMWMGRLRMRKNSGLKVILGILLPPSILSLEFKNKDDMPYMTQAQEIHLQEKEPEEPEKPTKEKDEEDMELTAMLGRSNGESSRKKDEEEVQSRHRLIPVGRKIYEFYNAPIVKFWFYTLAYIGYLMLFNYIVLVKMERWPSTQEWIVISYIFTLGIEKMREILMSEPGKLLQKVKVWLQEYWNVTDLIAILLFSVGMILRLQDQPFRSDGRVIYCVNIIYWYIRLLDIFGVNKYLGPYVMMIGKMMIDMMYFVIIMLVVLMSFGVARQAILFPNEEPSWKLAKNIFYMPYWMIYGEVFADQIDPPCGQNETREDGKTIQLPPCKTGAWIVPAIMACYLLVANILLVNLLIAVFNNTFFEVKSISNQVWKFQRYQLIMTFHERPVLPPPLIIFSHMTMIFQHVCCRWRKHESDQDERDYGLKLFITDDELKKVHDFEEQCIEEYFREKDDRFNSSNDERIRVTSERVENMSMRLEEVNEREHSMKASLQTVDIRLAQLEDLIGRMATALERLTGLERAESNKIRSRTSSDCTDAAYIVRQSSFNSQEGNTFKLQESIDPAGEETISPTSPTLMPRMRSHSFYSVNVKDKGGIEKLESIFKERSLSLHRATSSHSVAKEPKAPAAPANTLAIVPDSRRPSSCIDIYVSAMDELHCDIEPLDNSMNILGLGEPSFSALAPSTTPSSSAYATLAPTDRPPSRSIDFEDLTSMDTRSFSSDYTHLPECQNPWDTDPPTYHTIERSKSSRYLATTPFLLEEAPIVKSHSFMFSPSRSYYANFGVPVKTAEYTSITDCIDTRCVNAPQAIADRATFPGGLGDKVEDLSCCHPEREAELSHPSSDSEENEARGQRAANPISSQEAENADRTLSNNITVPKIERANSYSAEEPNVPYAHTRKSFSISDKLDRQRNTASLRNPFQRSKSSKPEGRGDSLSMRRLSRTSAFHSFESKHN

One experiment concerns the target mouse TRPM3α2 (mTRPM3) ion channel (Mus musculus (Mouse), UniProt J9SQF3). Put plainly: TRPM3 ion channel driven Ca2+ uptake, Fluo-4 AM assay, mTRPM3alpha2 overexpressing flip-in HEK293 cells stimulated with pregnenolone sulfate. Format: cell-based. The note with it: PS 50 μM, cpds 300-399. The method in brief: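 Read-out is Ca2+ influx via Fluo-4 AM fluorescence at 485/535 nm, taken right after seeding ~2000 cells/well onto compound with 50 μM PS. Inhibition computed from RFU between vehicle-stimulated and positive-control-inhibitor wells; cells were mTRPM3α2-overexpressing flip-in HEK293.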
On to `Cc1ncsc1COc1ccc2oc(C)c(C(=O)NCC3(F)CCOCC3)c2c1` [compound 394, N-((4-fluorotetrahydro-2H-pyran-4-yl)methyl)-2-methyl-5-((4-methylthiazol-5-yl)methoxy)benzofuran-3-carboxamide], for which the IC50 was < 1 µM.
Still for that read-out and setting: the value for `Cc1ncsc1COc1ccc2oc(C)c(C(=O)NC(C)(C)C(=O)NCCO)c2c1` [compound 398, N-(1-((2-hydroxyethyl)amino)-2-methyl-1-oxopropan-2-yl)-2-methyl-5-((4-methylthiazol-5-yl)methoxy)benzofuran-3-carboxamide] was < 1 µM; that for `Cc1ncc(COc2ccc3oc(C)c(C(=O)NC4(COC(F)F)CC4)c3c2)s1` [compound 399, N-(1-((difluoromethoxy)methyl)cyclopropyl)-2-methyl-5-((2-methylthiazol-5-yl)methoxy)benzofuran-3-carboxamide] was < 1 µM.

The experiment is the same for the next values; noted with them: PS (50 μM) stimulated, cpds. 400-499.
Regarding `Cc1ncsc1COc1ccc2oc(C)c(C(=O)NC3(COC(F)F)CC3)c2c1` [compound 400, N-(1-((difluoromethoxy)methyl)cyclopropyl)-2-methyl-5-((4-methylthiazol-5-yl)methoxy)benzofuran-3-carboxamide], the pIC50 was > 6.00.
Still for that read-out and setting: with `Cc1ncc(COc2ccc3oc(C)c(C(=O)NC4(CO)CCC4)c3c2)s1` [compound 414, N-(1-(hydroxymethyl)cyclobutyl)-2-methyl-5-((2-methylthiazol-5-yl)methoxy)benzofuran-3-carboxamide] the figure was > 6.00; with `Cc1oc2ccc(OCc3ccccn3)cc2c1C(=O)NC1(CO)CCC1` [compound 415, N-(1-(hydroxymethyl)cyclobutyl)-2-methyl-5-(pyridin-2-ylmethoxy)benzofuran-3-carboxamide], > 6.00; with `Cc1oc2ccc(OCc3cccnc3O)cc2c1C(=O)NC1(CO)CCC1` [compound 416, N-(1-(hydroxymethyl)cyclobutyl)-5-((2-hydroxypyridin-3-yl)methoxy)-2-methylbenzofuran-3-carboxamide], > 6.00.
The same measure, in the same setting: the value for `COc1ncccc1COc1ccc2oc(C)c(C(=O)NC3(CO)CCC3)c2c1` [compound 417, N-(1-(hydroxymethyl)cyclobutyl)-5-((2-methoxypyridin-3-yl)methoxy)-2-methylbenzofuran-3-carboxamide] was > 6.00; that for `Cc1ncc(COc2ccc3oc(C)c(C(=O)NC4(CO)CC4)c3c2)s1` [compound 418, N-(1-(hydroxymethyl)cyclopropyl)-2-methyl-5-((2-methylthiazol-5-yl)methoxy)benzofuran-3-carboxamide] was > 6.00.
The same measure, in the same setting: the value for `Cc1oc2ccc(OCc3ccccn3)cc2c1C(=O)NC1(CO)CC1` [compound 419, N-(1-(hydroxymethyl)cyclopropyl)-2-methyl-5-(pyridin-2-ylmethoxy)benzofuran-3-carboxamide] was > 6.00; that for `Cc1oc2ccc(OCc3cccnc3O)cc2c1C(=O)NC1(CO)CC1` [compound 420, N-(1-(hydroxymethyl)cyclopropyl)-5-((2-hydroxypyridin-3-yl)methoxy)-2-methylbenzofuran-3-carboxamide] was > 6.00.
Turning to `COc1ncccc1COc1ccc2oc(C)c(C(=O)NC3(CO)CC3)c2c1` [compound 421, N-(1-(hydroxymethyl)cyclopropyl)-5-((2-methoxypyridin-3-yl)methoxy)-2-methylbenzofuran-3-carboxamide], the pIC50 was > 6.00.
On the same count and under the same terms, with `Cc1oc2ccc(OCc3nccn3C)cc2c1C(=O)NC(C)(CO)CO` [compound 422, N-(1,3-dihydroxy-2-methylpropan-2-yl)-2-methyl-5-((1-methyl-1H-imidazol-2-yl)methoxy)benzofuran-3-carboxamide] the figure was > 6.00; with `Cc1oc2ccc(OCc3ccnn3C)cc2c1C(=O)NC(C)(CO)CO` [compound 423, N-(1,3-dihydroxy-2-methylpropan-2-yl)-2-methyl-5-((1-methyl-1H-pyrazol-5-yl)methoxy)benzofuran-3-carboxamide], > 6.00; with `Cc1oc2ccc(OCc3cccnc3C(F)(F)F)cc2c1C(=O)NC(C)(CO)CO` [compound 424, N-(1,3-dihydroxy-2-methylpropan-2-yl)-2-methyl-5-((2-(trifluoromethyl)pyridin-3-yl)methoxy)benzofuran-3-carboxamide], > 6.00.
`Cc1ncc(COc2ccc3oc(C)c(C(=O)NC(C)(CO)CO)c3c2)s1` [compound 425, N-(1,3-dihydroxy-2-methylpropan-2-yl)-2-methyl-5-((2-methylthiazol-5-yl)methoxy)benzofuran-3-carboxamide]: the pIC50 was > 6.00.
On the same count and under the same terms, with `Cc1ncsc1COc1ccc2oc(C)c(C(=O)NC(C)(CO)CO)c2c1` [compound 426, N-(1,3-dihydroxy-2-methylpropan-2-yl)-2-methyl-5-((4-methylthiazol-5-yl)methoxy)benzofuran-3-carboxamide] the figure was > 6.00; with `Cc1oc2ccc(OCc3cccnn3)cc2c1C(=O)NC(C)(CO)CO` [compound 427, N-(1,3-dihydroxy-2-methylpropan-2-yl)-2-methyl-5-(pyridazin-3-ylmethoxy)benzofuran-3-carboxamide], > 6.00.
Consider `Cc1oc2ccc(OCc3ccccn3)cc2c1C(=O)NC(C)(CO)CO` [compound 428, N-(1,3-dihydroxy-2-methylpropan-2-yl)-2-methyl-5-(pyridin-2-ylmethoxy)benzofuran-3-carboxamide], for which the pIC50 was > 6.00.
On the same count and under the same terms, the value for `Cc1oc2ccc(OCc3ccncn3)cc2c1C(=O)NC(C)(CO)CO` [compound 429, N-(1,3-dihydroxy-2-methylpropan-2-yl)-2-methyl-5-(pyrimidin-4-ylmethoxy)benzofuran-3-carboxamide] was > 6.00; that for `Cc1oc2ccc(OCc3cccnc3O)cc2c1C(=O)NC(C)(CO)CO` [compound 430, N-(1,3-dihydroxy-2-methylpropan-2-yl)-5-((2-hydroxypyridin-3-yl)methoxy)-2-methylbenzofuran-3-carboxamide] was > 6.00; that for `COc1ncccc1COc1ccc2oc(C)c(C(=O)NC(C)(CO)CO)c2c1` [compound 431, N-(1,3-dihydroxy-2-methylpropan-2-yl)-5-((2-methoxypyridin-3-yl)methoxy)-2-methylbenzofuran-3-carboxamide] was > 6.00.
With `Cc1oc2ccc(OCc3ccnn3C)cc2c1C(=O)NC(C)(C)C(N)=O` [compound 438, N-(1-amino-2-methyl-1-oxopropan-2-yl)-2-methyl-5-((1-methyl-1H-pyrazol-5-yl)methoxy)benzofuran-3-carboxamide], the pIC50 was > 6.00.
Same read-out and setting: the value for `Cc1ncc(COc2ccc3oc(C)c(C(=O)NC(C)(C)C(N)=O)c3c2)s1` [compound 439, N-(1-amino-2-methyl-1-oxopropan-2-yl)-2-methyl-5-((2-methylthiazol-5-yl)methoxy)benzofuran-3-carboxamide] was > 6.00.
Same read-out and setting: with `Cc1ncsc1COc1ccc2oc(C)c(C(=O)NC(C)(C)C(N)=O)c2c1` [compound 440, N-(1-amino-2-methyl-1-oxopropan-2-yl)-2-methyl-5-((4-methylthiazol-5-yl)methoxy)benzofuran-3-carboxamide] the figure was > 6.00; with `Cc1oc2ccc(OCc3cccnn3)cc2c1C(=O)NC(C)(C)C(N)=O` [compound 441, N-(1-amino-2-methyl-1-oxopropan-2-yl)-2-methyl-5-(pyridazin-3-ylmethoxy)benzofuran-3-carboxamide], > 6.00; with `Cc1oc2ccc(OCc3ccccn3)cc2c1C(=O)NC(C)(C)C(N)=O` [compound 442, N-(1-amino-2-methyl-1-oxopropan-2-yl)-2-methyl-5-(pyridin-2-ylmethoxy)benzofuran-3-carboxamide], > 6.00.
On the same count and under the same terms, the value for `Cc1oc2ccc(OCc3cccnc3O)cc2c1C(=O)NC(C)(C)C(N)=O` [compound 443, N-(1-amino-2-methyl-1-oxopropan-2-yl)-5-((2-hydroxypyridin-3-yl)methoxy)-2-methylbenzofuran-3-carboxamide] was > 6.00; that for `COc1ncccc1COc1ccc2oc(C)c(C(=O)NC(C)(C)C(N)=O)c2c1` [compound 444, N-(1-amino-2-methyl-1-oxopropan-2-yl)-5-((2-methoxypyridin-3-yl)methoxy)-2-methylbenzofuran-3-carboxamide] was > 6.00.
Regarding `Cc1ncsc1COc1ccc2oc(C)c(C(=O)NC(CO)C(N)=O)c2c1` (centres unmarked) [compound 454, N-(1-amino-3-hydroxy-1-oxopropan-2-yl)-2-methyl-5-((4-methylthiazol-5-yl)methoxy)benzofuran-3-carboxamide], the pIC50 was > 6.00.
`Cc1ncsc1COc1ccc2oc(C)c(C(=O)NC3(C(N)=O)CC(F)(F)C3)c2c1` [compound 470, N-(1-carbamoyl-3,3-difluorocyclobutyl)-2-methyl-5-((4-methylthiazol-5-yl)methoxy)benzofuran-3-carboxamide]: the pIC50 is > 6.00.
Turning to `Cc1ncc(COc2ccc3oc(C)c(C(=O)NC4(C(N)=O)CCC4)c3c2)s1` [compound 471, N-(1-carbamoylcyclobutyl)-2-methyl-5-((2-methylthiazol-5-yl)methoxy)benzofuran-3-carboxamide], the pIC50 was > 6.00.
Still for that read-out and setting: with `Cc1oc2ccc(OCc3ccccn3)cc2c1C(=O)NC1(C(N)=O)CCC1` [compound 472, N-(1-carbamoylcyclobutyl)-2-methyl-5-(pyridin-2-ylmethoxy)benzofuran-3-carboxamide] the figure was > 6.00; with `Cc1oc2ccc(OCc3cccnc3O)cc2c1C(=O)NC1(C(N)=O)CCC1` [compound 473, N-(1-carbamoylcyclobutyl)-5-((2-hydroxypyridin-3-yl)methoxy)-2-methylbenzofuran-3-carboxamide], > 6.00.
The same measure, in the same setting: with `COc1ncccc1COc1ccc2oc(C)c(C(=O)NC3(C(N)=O)CCC3)c2c1` [compound 474, N-(1-carbamoylcyclobutyl)-5-((2-methoxypyridin-3-yl)methoxy)-2-methylbenzofuran-3-carboxamide] the figure was > 6.00.

As a reminder, the IC50 is the concentration needed to halve the response being measured. Broadly, the pIC50 is −log10 of the IC50, conventionally taken in molar units. Read a low pIC50 as a high IC50.
